The record followed here is patent US20240366571A1, “MODULATORS OF SK4 POTASSIUM CHANNEL AND USES THEREOF” (Ramot at Tel-Aviv University Ltd., priority 2022, published 2024).

Entries after “also recorded” stand apart in the source; their conditions may differ.

Assay [1] relates to isolated guinea pig hearts. The experiment in a line: Langendorff perfused isolated guinea pig hearts. The conditions noted are these: 10 μM. The method, then:
Animals: Adult male Sprague-Dawley rats (n=56, 200-250 grams) and Guinea pigs (n=19, 400-700 grams) obtained from Envigo Laboratories (Jerusalem, Israel) were bred and grown in Ben-Gurion University of the Negev, Israel. Experiments in rats and guinea pigs were approved by the institutional ethics committee of Ben-Gurion University of the Negev, Israel (Protocol No. IL-24-05-2020(D) and were carried out in strict accordance with the Guide for the Care and Use of Laboratory Animals of the National Institutes of Health. The animals were kept under standardized conditions: 12:12 light: dark cycles at 20-24° C. and 30-70% relative humidity.
Perfused isolated hearts—Langendorff method: The isolated heart experiment setup was performed as described in Etzion et al., Am J Physiol Heart Circ Physiol (2008) 295, H1460-1469; and Mor et al., J Pharmacol Exp Ther (2013) 344, 59-67.]. Briefly, each animal was anesthetized with 2% isoflurane and an intraperitoneal (IP) injection of pentobarbital (60 mg/kg), followed by IP injection of Heparin (1000 U/kg). The heart was rapidly excised and placed into ice-cold Tyrode's buffer solution (consisted of 140 mM NaCl, 5.4 mM KCl, 0.5 mM MgCl2, 2.5 mM CaCl2, 0.39 mM NaH2PO4, 10 mM HEPES and 11 mM glucose, and titrated to pH 7.4 with NaOH). The aorta was cannulated and connected to a pre-heated (37° C.) and oxygenated perfusion system with Tyrode's solution while perfusion pressure was maintained at about 70 mmHg throughout the experiment. Prior to the experiment, the heart was left in Tyrode's solution to stabilize for 20 minutes for hemodynamic measurements, the left atrial appendage was excised, and a collapsed latex balloon was inserted into the left ventricle (LV) through the mitral valve. Once positioned, the balloon was filled with double distilled water reaching an end-diastolic pressure of 10-15 mmHg. Coronary perfusion pressure and LV pressure were recorded by a pressure amplifier (ETH-256C amplifier and B-100 probes, iWorx, NH, USA). Electrophysiological signals were recorded from the high right atrium (HRA) via a miniature quadripolar hook electrode (for simultaneous pacing and recording) and from the LV via a bipolar hook electrode. Electrical signals were filtered (1-2 kHz) and recorded by two voltage amplifiers (Model 3000, A-M Systems, Carlsberg, WA, USA). Signals were interfaced with a PC using an A/D converter (PCI-6024E, National Instruments, Austin TX, USA) and a custom-designed program developed with LabVIEW programing language (National Instruments, Austin, TX, USA) to control signal acquisition, data saving and off-line analysis. Measured physiological parameters during the experiment included perfusion flow (ml/minute) as a marker for coronary perfusion pressure, LV developed pressure, dP/dt±(representing the rate of rise of left ventricular pressure during isovolumetric contraction as a marker for LV contractility), heart rate, PR, and RR intervals. Tram-34 and BA6b9 were applied for a 20-minutes incubation period and physiological parameters were recorded.
Effective refractory period measurements: Using both custom-made quadripolar electrode inserted on the HRA and two bipolar electrodes (recording and pacing) on the LV, allowed measurement of the effective refractory period (ERP) at the atrial level (atrial effective refractory period, AERP), atrioventricular level (AVERP), and ventricular level (VERP). For ERP measurement, a programmed S1S2 stimulation protocol was performed using double diastolic threshold intensity. The protocol consisted of ten S1-S2 intervals of 150 milliseconds (ms) followed by an S1-S2 interval that was reduced by 1 ms each time, until pacing capture failed three consecutive times. AERP, AVERP, and VERP were measured and recorded prior and after exposure to the used inhibitor, either Tram-34 or BA6b9.

For a further assay, the target named is T1, human SK4 (Homo sapiens, UniProt O15554).
T1 construct: expressed in transfected cells; host or cells: CHO cells
The experiment in a line: Whole-cell patch-clamp of WT SK4 K+ currents in transfected CHO cells. It counts as cell-based. (The patch-clamp technique gives a direct electrical read-out from membranes.)

Take `CCCCCCCn1c(=O)oc2ccccc21` [BA6b9, 3-heptylbenzo[d]oxazol-2(3H)-one]: in assay [1], the “AERP (effect)” value was “significantly prolonged”, the “AVERP (effect)” value is “significantly prolonged”, the “PR interval (effect)” value is listed as “increasing PR interval” and the “VERP (effect)” value is listed as “significantly prolonged”. In assay [1], the “action potential activation current (atrial and ventricular pacing thresholds)” value is reported as “Neither Tram-34 nor BA6b9 affected”; the “coronary flow (perfusion flow velocity)” value was “no effect”; the “heart rate (effect)” value is “decreased heart rate”. Besides, the inhibition at 20 µM at human SK4 (CHO, 20 μM, whole-cell) is 56%. In addition, the “SK4 K+ channel modulating activity” value at human SK4 (WT SK4 currents in absence and presence of 20 μM compound) is recorded as “inhibited; also recorded: Inhibitor”.

Usually inhibition stands for the percentage by which the read-out fell short of the control. Low readings indicate a response near the control, high ones a response far below the control.
